The record followed here is US20050182242A1, “Global analysis of protein activities using proteome chips” (priority 2001, published 2005).

This test concerns total yeast genomic DNA. The test is described as follows: Yeast proteome chip probed with labeled genomic DNA. Type of test: binding. Particulars: Cy3-labeled genomic DNA, visual inspection. From the text:
Protein-DNA and protein-RNA interactions are important for many fundamental biological functions such as transcription regulation, chromosome segregation and maintenance, and RNA transport and processing (Williamson, 2000, Nat. Struct. Biol. 7(10):834-7). To explore the possibility of using a proteome chip to identify proteins that bind to DNA or RNA molecules, total yeast genomic DNA was labeled using Cy3-CTP and Klenow fragment, and polyA^+ was labeled using a biotinylated psoralen-derivative (31). Each probe was incubated with a different proteome chip (FIG. 3A).
The protein-nucleic acid interaction was assayed as follows. The nucleic acid robes were labeled as described by Winzeler et al. (1999, Science 285:901). Blocked proteome chips were washed three to five times in PBS buffer, and the extra liquid on the glass surface was removed by tapping the slides vertically on a KIMWIPE™. 200 μl of labeled nuclei acid probe ([…] poly(dC/dG); 100-300 mM NaCl; 50-300 mM HEPES, pH 7.0-8.5; 10 mM MgCl2) was added to the proteome chip and immediately covered by a hydrophobic plastic cover slip (GRACE BIO-LABS™, USA). After trapped air bubbles were removed, the chip was incubated in a humidity chamber in the dark at room temperature (“RT”) for one hour. To remove the cover slip, the chip was immersed into large volume of PBS buffer(>50 ml), so that the slip would float away. […]

“Gcd11p: gamma subunit of translation initiation factor eIF2”: the “binding of genomic DNA probe” value is “tested positive”.
